Data on six substances can be found in patent US6552167B1, “Polyamide chains of precise length” (Gryphon Therapeutics, Inc., priority 1998, dated 2003).

One data set deals with chymotrypsin. Nature of the data set: Polyamide stability to protease digestion, HPLC analysis (chymotrypsin). Conditions: 24 hours; 1 mg/ml in 1% ammonium bicarbonate, enzyme:substrate 1:100, 37° C. The procedure:
(§1) The compounds produced in Examples 8 and 9 were separately dissolved at 1 mg/ml in a 1% ammonium bicarbonate solution. In separate tubes, these solutions were treated with trypsin, chymotrypsin and elastase (enzyme:substrate ratio 1:100, 37° C.). Aliquots (20 μl) were withdrawn at intervals and analyzed by HPLC.

In another data set the test system is trypsin. Put plainly: Polyamide stability to protease digestion, HPLC analysis (trypsin). The note with it: 24 hours; 1 mg/ml in 1% ammonium bicarbonate, enzyme:substrate 1:100, 37° C. How it is done:
as §1

The subject of a further data set is elastase. Nature of the data set: Polyamide stability to protease digestion, HPLC analysis (elastase). Conditions: 24 hours; 1 mg/ml in 1% ammonium bicarbonate, enzyme:substrate 1:100, 37° C. How it is done: as §1
In data set [1] the test system is human leukemic UT-7 EPO dependent cell line. Put plainly: EPO activity in a cell culture assay (UT-7 EPO dependent cell line). The data set is classed as cell-based. Conditions: for ED50 (effective dose giving 50% of maximum response): UT-7 EPO dependent cell line. The procedure: Precise Length EMP-dimers with linkers of different lengths were assayed for EPO activity in a cell culture assay (human leukemic UT-7 EPO dependent cell line). Recombinant EPO and the EMP monomer peptides were included as controls, where the monomer is designated as “mono” in Table 1.
The short linker in the precise length EMP-dimer (designated “s” in Table 1) was -(‘PEG’-succ)2-‘PEG’-(succ-‘PEG’)2-. The medium linker (designated “m” in Table 1) was -(‘PEG’-succ)6-‘PEG’-(succ-‘PEG’)6- and the long linker (designated “1” in Table 1) was -(‘PEG’-succ)8-‘PEG’-(succ-‘PEG’)8-.
Table 1 presents the mean OD's for each peptide sample.
Table 2 presents the mean OD's for recombinant EPO sample.
It was clear, from the results presented above, that the ED50 (effective dose giving 50% of maximum response) values were as presented in Table 3.

Another data set relates to BCL, turnor cell line. Conditions: disulfide bond between the cysteines; Terskikh, et al.; cited from earlier work.
The nature of the next data set: Solubility in solvents. It counts as physicochemical.

Positions of bridges follow the written chain, without caps; N, C: chain ends. 'PEG'‑succ = not defined here

In the case of “H-PQPQPKPQPQPQPQPKPQPKPEPE-NH2 [SEQ ID NO:5]”, the digestion by chymotrypsin entry in the data set on chymotrypsin is “stable”. Further, the digestion by trypsin entry with trypsin is listed as “digested extensively”. Further, the digestion by elastase result in the data set with elastase is given as “stable”.
Regarding “amide-GRLPQCVWTMPGMHCAYLGG-COCH2ON═CH—CO-(‘PEG’-succ)12-‘PEG’-CH═NOCH2CO-GGLYACHMGPMTWVCQPLRG-amide [EMP-m (medium dimer)]”, the “ED50 (effective dose giving 50% of maximum response)” value in data set [1] was determined as 1 pM. Also, the “mean OD” value in data set [1] (concentration 1 × 10^−1 μM) is reported as “.884”; in data set [1] (concentration 1.11 × 10^−2 μM), “.876”; in data set [1] (concentration 1.24 × 10^−3 μM), “.916”; in data set [1] (concentration 1.37 × 10^−4 μM), “.760”; in data set [1] (concentration 1.52 × 10^−5 μM), “.597”; in data set [1] (concentration 1.69 × 10^−6 μM) it was “.641”. The “mean OD” value in data set [1] (concentration 1.88 × 10^−7 μM) is listed as “.363”; in data set [1] (concentration 2.09 × 10^−8 μM) it was “.287”; in data set [1] (concentration 2.32 × 10^−9 μM) it was “.246”; in data set [1] (concentration 3.33 × 10^−2 μM), “.902”; in data set [1] (concentration 3.70 × 10^−3 μM) it was “.888”; in data set [1] (concentration 4.12 × 10^−4 μM), “.805”. Moreover, the “mean OD” value in data set [1] (concentration 4.57 × 10^−5 μM) is on record as “.637”; in data set [1] (concentration 5.08 × 10^−6 μM), “.712”; in data set [1] (concentration 5.65 × 10^−7 μM) it was “.469”; in data set [1] (concentration 6.27 × 10^−8 μM), “.350”; in data set [1] (concentration 6.97 × 10^−9 μM), “.280”.
Turning to “erythropoietin mimetic peptide monomer, GGLYACHMGPMTWVCQPLRG (SEQ ID NO:1), control [EMP monomer, reference compound]”, the “ED50 (effective dose giving 50% of maximum response)” value in data set [1] is on record as 20,000 pM. Moreover, the “mean OD” value is listed as “.878” in data set [1] (concentration 1 × 10^−1 μM); “.373” in data set [1] (concentration 1.11 × 10^−2 μM); “.078” in data set [1] (concentration 1.24 × 10^−3 μM); “.089” in data set [1] (concentration 1.37 × 10^−4 μM); “.673” in data set [1] (concentration 3.33 × 10^−2 μM); “.210” in data set [1] (concentration 3.70 × 10^−3 μM). Also, the “mean OD” value in data set [1] (concentration 4.12 × 10^−4 μM) was “.078”.
Take “ADGACRNPWC (H-ADGACRNPWC-{'PEG'‑succ-'PEG'‑succ-'PEG'‑succ-'PEG'‑succ-'PEG'‑succ-'PEG'‑succ-'PEG'‑succ-'PEG'‑succ-Lys(AoA)-NH2}; disulfide 5-10 (inferred); reading uncertain; also: four copies oximated to fluorescein-labelled Lys2Lys template (tetrameric chemobody)) [phage-derived peptide]”: in the data set on BCL, turnor cell line, the “binding to the BCL tumor cell line” value is “bound”.
For “Recombinant EPO: recombinant erythropoietin, control”, the “mean OD” value in data set [1] (EPO 1.85 ng/ml) is reported as “.878”; in data set [1] (EPO 5.56 ng/ml), “.885”; in data set [1] (EPO 16.7 ng/ml), “.920”; in data set [1] (EPO 50 ng/ml), “.917”; in data set [1] (EPO .00254 ng/ml) it was “.101”; in data set [1] (EPO .00762 ng/ml) it was “.108”. In addition, the “mean OD” value in data set [1] (EPO .0229 ng/ml) is recorded as “.124”; in data set [1] (EPO .0686 ng/ml) it was “.179”; in data set [1] (EPO .206 ng/ml), “.362”; in data set [1] (EPO .617 ng/ml), “.650”. The “ED50 (effective dose giving 50% of maximum response)” value in data set [1] is given as 25 pM.
Fmoc-Ser(But)-(‘PEG’-succ)8-Abu-OH: the “solubility in the water/acetonitrile/TFA HPLC solvent system” value in “Solubility in solvents” is given as “perfectly soluble”.
